Patent US20160287626A1, “METHODS OF TREATING AND PREVENTING RADIATION DAMAGE” (CANTEX PHARMACEUTICALS, INC., priority 2013, published 2016)
“Also recorded” adds a separate entry of the source.

How the values were obtained:
anti-coagulant activity = conditions: cited from earlier work
[1] = test system: CD2F1 mice irradiated with 9.25 Gy; assay: Survival of CD2F1 mice after 9.25 Gy total body irradiation; format: in vivo; conditions: 9.25 Gy TBI
Method: FIG. 1 provides a graph illustrating the survival of CD2F1 mice after total body irradiation: control group with no post-irradiation treatment (o); 0.1 mL PBS administered subcutaneously at 4 h post-irradiation (□); 0.1 mL PBS administered subcutaneously at 24, 36, and 48 h post-irradiation (Δ); 0.1 mL 25 mg/kg ODSH administered subcutaneously at 4, 16, and 28 h post-irradiation (▪); and 0.1 mL 25 mg/kg ODSH administered subcutaneously at 24, 36, and 48 h post-irradiation (▴).
CD2F1 male mice (Batch #7586 DOB Dec. 23, 2012) were weighed and animals outside ±20% of the mean weight were excluded. Mice that were within ±20% of the mean weight were randomized into groups of eight animals per box. There were 24 animals per treatment group. The animals received radiation at a dose rate of 0.6 Gy/min in the AFRRI Cobalt 60 gamma radiation facility. Animals were irradiated in Lucite boxes (8 animals/box) and arranged in an array (dosimetry Feb. 25, 2010) using plastic racks. Animals were restrained for no more than 60 min and returned to cages at the end of the irradiation period.
Post-TBI, animals were untreated (naïve) or treated subcutaneously with either phosphate buffered solution (PBS) or ODSH (2-O, 3-O desulfated heparin). […] The animals were monitored daily (twice a day when necessary) for 30 days and euthanized at the completion of the observational period.

Substance: 2-O, 3-O desulfated heparin [ODSH]
- anti-coagulant activity in the USP anti-coagulant assay (anti-coagulant activity): less than 9 U/mg
- anti-coagulant activity in the USP anti-coagulant assay (example value) (anti-coagulant activity; e.g. value): 7±0.3 U
- survival over the post-irradiation period compared with naïve and PBS-treated mice ([1]; 25 mg/kg s.c. post-irradiation (24, 36 and 48 h), 30-day observation, 25 mg/kg): greatest percentage survival; also recorded: improves survival
- mice still alive at day 10 post-irradiation ([1]; 0.1 mL 25 mg/kg s.c. at 24, 36 and 48 h post-irradiation, day 10): 95%

Substance: Unfractionated heparin [reference compound]
- anti-coagulant activity in the USP anti-coagulant assay (anti-coagulant activity): 165-190 U/mg
